The values below come from patent US9181273B2, “Morpholine-spirocyclic piperidine amides as modulators of ion channels” (Vertex Pharmaceuticals Incorporated, priority 2011, dated 2015).

Molecules are shown by their SMILES. pIC50: −log10 of the molar value.

Chain of human NaV subtype, like NaV 1.7 (Q15858 whole entry): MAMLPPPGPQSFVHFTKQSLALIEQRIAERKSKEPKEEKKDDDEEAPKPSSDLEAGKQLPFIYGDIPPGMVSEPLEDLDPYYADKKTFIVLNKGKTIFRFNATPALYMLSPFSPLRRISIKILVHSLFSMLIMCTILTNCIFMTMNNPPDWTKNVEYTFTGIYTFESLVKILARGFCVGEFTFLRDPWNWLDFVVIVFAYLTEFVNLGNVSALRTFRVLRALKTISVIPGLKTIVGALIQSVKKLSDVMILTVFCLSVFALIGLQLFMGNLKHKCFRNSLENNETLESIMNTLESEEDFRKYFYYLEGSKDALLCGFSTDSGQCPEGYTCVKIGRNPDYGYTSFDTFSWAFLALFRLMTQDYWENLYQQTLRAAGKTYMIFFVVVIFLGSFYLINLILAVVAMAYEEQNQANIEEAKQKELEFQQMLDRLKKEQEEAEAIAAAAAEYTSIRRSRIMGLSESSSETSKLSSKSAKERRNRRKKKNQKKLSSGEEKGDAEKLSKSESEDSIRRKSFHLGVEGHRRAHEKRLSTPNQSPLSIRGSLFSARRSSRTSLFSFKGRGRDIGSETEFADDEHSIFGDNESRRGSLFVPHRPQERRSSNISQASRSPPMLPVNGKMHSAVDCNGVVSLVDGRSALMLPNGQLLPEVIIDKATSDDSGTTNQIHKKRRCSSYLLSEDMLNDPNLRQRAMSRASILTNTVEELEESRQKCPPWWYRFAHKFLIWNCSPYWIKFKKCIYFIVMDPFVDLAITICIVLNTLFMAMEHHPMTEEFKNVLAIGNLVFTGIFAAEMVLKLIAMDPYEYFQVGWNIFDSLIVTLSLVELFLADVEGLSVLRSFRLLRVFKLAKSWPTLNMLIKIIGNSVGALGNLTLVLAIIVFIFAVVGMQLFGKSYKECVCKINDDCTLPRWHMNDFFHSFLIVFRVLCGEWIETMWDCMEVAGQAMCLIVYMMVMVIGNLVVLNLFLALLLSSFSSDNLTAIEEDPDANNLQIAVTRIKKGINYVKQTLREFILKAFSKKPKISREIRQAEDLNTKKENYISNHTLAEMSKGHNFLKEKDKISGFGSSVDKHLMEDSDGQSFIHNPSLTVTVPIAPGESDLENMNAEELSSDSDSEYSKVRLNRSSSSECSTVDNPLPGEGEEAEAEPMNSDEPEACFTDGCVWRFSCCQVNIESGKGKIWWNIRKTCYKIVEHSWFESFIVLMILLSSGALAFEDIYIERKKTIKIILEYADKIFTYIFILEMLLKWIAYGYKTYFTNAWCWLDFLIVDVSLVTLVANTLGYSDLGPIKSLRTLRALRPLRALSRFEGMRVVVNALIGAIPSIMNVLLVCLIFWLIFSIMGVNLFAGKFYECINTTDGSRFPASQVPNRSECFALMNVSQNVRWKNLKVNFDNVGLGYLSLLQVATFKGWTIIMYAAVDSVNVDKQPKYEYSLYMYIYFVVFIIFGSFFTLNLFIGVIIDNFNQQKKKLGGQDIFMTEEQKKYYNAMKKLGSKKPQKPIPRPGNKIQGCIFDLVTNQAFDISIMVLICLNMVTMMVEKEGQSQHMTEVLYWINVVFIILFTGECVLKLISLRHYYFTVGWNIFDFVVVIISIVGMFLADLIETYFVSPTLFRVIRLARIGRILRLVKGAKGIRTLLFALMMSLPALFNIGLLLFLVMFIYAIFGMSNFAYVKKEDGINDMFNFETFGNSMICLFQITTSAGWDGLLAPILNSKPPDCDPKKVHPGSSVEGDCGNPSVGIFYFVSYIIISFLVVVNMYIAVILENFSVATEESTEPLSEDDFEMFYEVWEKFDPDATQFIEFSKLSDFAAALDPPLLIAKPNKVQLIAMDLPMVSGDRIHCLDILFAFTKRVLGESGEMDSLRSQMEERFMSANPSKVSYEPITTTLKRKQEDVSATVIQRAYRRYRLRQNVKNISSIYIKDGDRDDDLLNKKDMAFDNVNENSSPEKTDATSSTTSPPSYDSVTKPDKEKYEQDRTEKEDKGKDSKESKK

The test concerns the target human NaV subtype, like NaV 1.7 (Homo sapiens, UniProt Q15858). Put plainly: E-VIPR optical membrane potential assay with electrical stimulation. Type of test: cell-based. Conditions: active against one or more sodium channels; assay and NaV subtype not specified for Table 3; read-out: IC50 Binned Activity Data. The text has this:
Sodium channels are voltage-dependent proteins that can be activated by inducing membrane voltage changes by applying electric fields. […] The instrument comprises a microtiter plate handler, an optical system for exciting the coumarin dye while simultaneously recording the coumarin and oxonol emissions, a waveform generator, a current- or voltage-controlled amplifier, and a device for inserting electrodes in well. Under integrated computer control, this instrument passes user-programmed electrical stimulus protocols to cells within the wells of the microtiter plate.
24 hours before the assay on E-VIPR, HEK cells expressing human NaV subtype, like NaV 1.7, are seeded in 384-well poly-lysine coated plates at 15,000-20,000 cells per well. Other subtypes are performed in an analogous mode in a cell line expressing the NaV of interest. […] Cells are grown in vented cap flasks, in 90% humidity and 10% CO2, to 100% confluence. They are usually split by trypsinization 1:10 or 1:20, depending on scheduling needs, and grown for 2-3 days before the next split.
To make the solution Add volume of 10% Pluronic F127 stock equal to volumes of CC2-DMPE+DiSBAC6(3). The order of preparation is first mix Pluronic and CC2-DMPE, then add DiSBAC6(3) while vortexing, then add Bath1+β-Cyclodextrin.
1) Pre-spot compounds (in neat DMSO) into compound plates. […] Final compound plate volume will be 80 μL (80-fold intermediate dilution from 1 μL DMSO spot; 160-fold final dilution after transfer to cell plate).
2) Prepare Hexyl Dye Solution.
3) Prepare cell plates. On the day of the assay, medium is aspirated and cells are washed three times with 100 μL of Bath1 Solution, maintaining 25 μL residual volume in each well.
4) Dispense 25 μL per well of Hexyl Dye Solution into cell plates. Incubate for 20-35 minutes at room temp or ambient conditions.
5) Dispense 80 μL per well of Bath1 into compound plates. Acid Yellow-17 (1 mM) is added and Potassium Chloride can be altered from 4.5 to 20 mM depending on the NaV subtype and assay sensitivity.
6) Wash cell plates three times with 100 μL per well of Bath1, leaving 25 μL of residual volume. Then transfer 25 uL per well from Compound Plates to Cell Plates. Incubate for 20-35 minutes at room temp/ambient condition
7) Read Plate on E-VIPR. Use the current-controlled amplifier to deliver stimulation wave pulses for typically 9 seconds and a scan rate of 400 Hz. A pre-stimulus recording is performed for 0.5 seconds to obtain the un-stimulated intensities baseline. The stimulatory waveform is applied for 9 seconds followed by 0.5 seconds of post-stimulation recording to examine the relaxation to the resting state. The stimulatory waveform of the electrical stimulation is specific for each cell type and can vary the magnitude, duration and frequency of the applied current to provide an optimal assay signal.
Data are analyzed and reported as normalized ratios of background-subtracted emission intensities measured in the 460 nm and 580 nm channels. Background intensities are then subtracted from each assay channel. Background intensities are obtained by measuring the emission intensities during the same time periods from identically treated assay wells in which there are no cells. The response as a function of time is then reported as the ratios obtained using the following formula: […]
The data is further reduced by calculating the initial (Ri) and final (Rf) ratios. These are the average ratio values during part or all of the pre-stimulation period, and during sample points during the stimulation period. The response to the stimulus R=Rf/Ri is then calculated and reported as a function of time.
Control responses are obtained by performing assays in the presence of a compound with the desired properties (positive control), such as tetracaine, and in the absence of pharmacological agents (negative control). Responses to the negative (N) and positive (P) controls are calculated as above. The compound antagonist activity A is defined as: […]
In the case of `Cc1nc(C(=O)N2CCC3(CC2)CN(CC(F)(F)F)CC(c2ccccc2)O3)ccc1C#N` (stereo not shown) [Compound 106], the pIC50 (usually the negative decadic logarithm of the IC50, by convention in mol/L) was under 5.30. Consider `CCCOCCN1CC(COC)OC2(CCN(C(=O)c3ccc(OC(C)C)c(C)c3)CC2)C1` (stereo not shown) [Compound 107], for which the pIC50 is over 5.70.

Regarding `Cc1cc(S(C)(=O)=O)ccc1C(=O)N1CCC2(CC1)CN(CC(F)(F)F)CC(c1ccccc1)O2` (stereo not shown) [Compound 108], the pIC50 is under 5.30. For `CC(C)CS(=O)(=O)c1ccc(C(=O)N2CCC3(CC2)CN(CC(F)F)CC(c2ccc(F)cc2)O3)cc1` (stereo not shown) [Compound 109], the pIC50 was 5.30 to 5.70. The value for `CC(C)Oc1ccc(C(=O)N2CCC3(CC2)CN(CC(F)(F)F)CC(c2cc[nH]n2)O3)cc1Cl` (stereo not shown) [Compound 110] was over 5.70; that for `COCC1CN(CC(C)C)CC2(CCN(C(=O)c3ccc(OC(C)C)c(C)c3)CC2)O1` (stereo not shown) [Compound 111] was over 5.70.

On to `CCC(CC)CN1CC(COC)OC2(CCN(C(=O)c3ccc(OC(C)C)c(C)c3)CC2)C1` (stereo not shown) [Compound 112], for which the negative-log IC50 (pIC50) is over 5.70.

For `COCC1CN(CC(C)=O)CC2(CCN(C(=O)c3ccc(OC(C)C)c(C)c3)CC2)O1` (stereo not shown) [Compound 113], the pIC50 was under 5.30. With `Cc1cc(C(=O)N2CCC3(CC2)CN(c2ncccn2)CC(COC(C)C)O3)ccc1OC(C)C` (stereo not shown) [Compound 114], the negative logarithm of the IC50 (pIC50) was over 5.70. Regarding `COc1cc(C(=O)N2CCC3(CC2)CN(CC#N)CC(c2ccccc2)O3)ccc1C(C)(C)O` (stereo not shown) [Compound 115], the pIC50 is 5.30 to 5.70.

As to `Cc1nc2cccc(C(=O)N3CCC4(CC3)CN(CC(F)(F)F)CC(c3ccccc3)O4)c2o1` (stereo not shown) [Compound 116], the pIC50 is over 5.70.

On to `Cc1cc(C(=O)N2CCC3(CC2)CN(CC(F)(F)F)CC(c2ccccc2)O3)ccc1OCCCO` (stereo not shown) [Compound 117], for which the negative-log IC50 (pIC50) is over 5.70.

Take `O=C(c1cc(Cl)cc(Cl)c1)N1CCC2(CC1)CN(CC(F)(F)F)CC(c1ccccc1)O2` (stereo not shown) [Compound 118]: the negative logarithm of the IC50 (pIC50) is under 5.30. Take `CC(C)Oc1ccc(C(=O)N2CCC3(CC2)CN(CC(F)(F)F)CC(c2ccccc2)O3)cc1` (stereo not shown) [Compound 119]: the pIC50 was over 5.70. With `COCC1CN(c2ncccn2)CC2(CCN(C(=O)c3ccc(OC(C)C)c(C)c3)CC2)O1` (stereo not shown) [Compound 120], the pIC50 is over 5.70. As for `COCC1CN(C2CCN(C(C)=O)CC2)CC2(CCN(C(=O)c3ccc(OC(C)C)c(C)c3)CC2)O1` (stereo not shown) [Compound 121], the negative-log IC50 (pIC50) is under 5.30. Regarding `Cc1cc(C(=O)N2CCC3(CC2)CN(CC(F)F)CC(c2ccc(Cl)cc2)O3)ccc1OC(C)C` (stereo not shown) [Compound 122], the pIC50 was under 5.30.

Take `Cc1cc(C(=O)N2CCC3(CC2)CN(CC(F)(F)F)[C@H](C)[C@@H](c2ccccc2)O3)ccc1OC(C)C` [Compound 123]: the pIC50 is 5.30 to 5.70. The value for `COCC1CN(c2ccc(C(F)(F)F)cc2)CC2(CCN(C(=O)c3ccc(OC(C)C)c(C)c3)CC2)O1` (stereo not shown) [Compound 124] was over 5.70; that for `COCCOc1ccc(C(=O)N2CCC3(CC2)CN(c2ncccn2)CC(COC)O3)cc1OC` (stereo not shown) [Compound 125] was under 5.30.

Take `COCC1CN(c2cc(OC)ccn2)CC2(CCN(C(=O)c3ccc(OC(C)C)c(C)c3)CC2)O1` (stereo not shown) [Compound 126]: the pIC50 is over 5.70. Regarding `Cc1cc(C(=O)N2CCC3(CC2)CN(CC(F)(F)F)CC(C(C)(C)O)O3)ccc1OC(C)C` (stereo not shown) [Compound 127], the pIC50 is 5.30 to 5.70. Take `COc1cc(C(=O)N2CCC3(CC2)CN(CC(F)(F)F)CC(c2ccccc2)O3)ccc1OC(C)(C)C` (stereo not shown) [Compound 128]: the pIC50 is over 5.70.

For the compound `CC#CCN1CC(CC)OC2(CCN(C(=O)c3ccc(C(C)(C)C)c(OC)c3)CC2)C1` (stereo not shown) [Compound 129], the pIC50 was over 5.70.

Turning to `CCC1CN(c2ncccn2)CC2(CCN(C(=O)c3ccc(C4=CCCC4)c(F)c3)CC2)O1` (stereo not shown) [Compound 130], the pIC50 is under 5.30. On to `COCC1CN(C2CCSCC2)CC2(CCN(C(=O)c3ccc(OC(C)C)c(C)c3)CC2)O1` (stereo not shown) [Compound 131], for which the pIC50 is over 5.70. As to `COCC1CN(Cc2cc(C)on2)CC2(CCN(C(=O)c3ccc(OC(C)C)c(C)c3)CC2)O1` (stereo not shown) [Compound 132], the pIC50 is 5.30 to 5.70.

`CC(C)(O)Cc1ccc(C(=O)N2CCC3(CC2)CN(CC(F)(F)F)CC(c2ccccc2)O3)cc1` (stereo not shown) [Compound 133]: the pIC50 was over 5.70. In the case of `COCC1CN(CC2CCOCC2)CC2(CCN(C(=O)c3ccc(OC(C)C)c(C)c3)CC2)O1` (stereo not shown) [Compound 134], the pIC50 was under 5.30. To `CC(C)Oc1ccc(C(=O)N2CCC3(CC2)CN(CC(F)(F)F)CC(c2ccccc2)O3)c(F)c1` (stereo not shown) [Compound 135] belongs over 5.70; to `COCC1CN(c2ncccn2)CC2(CCN(C(=O)c3ccc(OC(C)C)cc3)CC2)O1` (stereo not shown) [Compound 136], 5.30 to 5.70; to `CC(C)Oc1ccc(C(=O)N2CCC3(CC2)CN(CC(F)F)CC(c2ncc(C(C)(C)C)o2)O3)cc1F` (stereo not shown) [Compound 137], over 5.70. On to `Cc1cc(C(=O)N2CCC3(CC2)CN(CC(F)(F)F)CC(c2ccccc2)O3)ccc1OCC(C)(C)O` (stereo not shown) [Compound 138], for which the pIC50 was over 5.70.

As to `CC#CCN1CC(CF)OC2(CCN(C(=O)c3ccc(OC(C)C)c(C)c3)CC2)C1` (stereo not shown) [Compound 139], the pIC50 is under 5.30. Consider `COCC1CN(c2ccccn2)CC2(CCN(C(=O)c3ccc(OC(C)C)c(C)c3)CC2)O1` (stereo not shown) [Compound 140], for which the pIC50 is over 5.70.

As for `CC#CCN1CC(CC)OC2(CCN(C(=O)c3ccc(OC)c(C)c3)CC2)C1` (stereo not shown) [Compound 141], the pIC50 is under 5.30. Regarding `CCC1CN(Cc2ccccc2)CC2(CCN(C(=O)c3ccc(OC(C)C)c(C)c3)CC2)O1` (stereo not shown) [Compound 142], the pIC50 was under 5.30. `COCCOc1ccc(C(=O)N2CCC3(CC2)CN(CC(F)(F)F)CC(c2ccccc2)O3)cc1OC` (stereo not shown) [Compound 143]: the pIC50 was over 5.70.

In the case of `COc1cccc(C(=O)N2CCC3(CC2)CN(CC(F)F)CC(c2ccccc2)O3)n1` (stereo not shown) [Compound 144], the pIC50 is 5.30 to 5.70. To `CCOc1ccc(C(=O)N2CCC3(CC2)CN(CC)CC(c2ccccc2)O3)cc1CO` (stereo not shown) [Compound 145] belongs under 5.30; to `Cc1cc(C(=O)N2CCC3(CC2)CN(CC(F)(F)F)CC(CCO)O3)ccc1OC(C)C` (stereo not shown) [Compound 146], 5.30 to 5.70. As to `COCC1CN(CCC(C)C)CC2(CCN(C(=O)c3ccc(OC(C)C)c(C)c3)CC2)O1` (stereo not shown) [Compound 147], the pIC50 was over 5.70. In the case of `Cc1noc(C2CN(Cc3ccccc3)CC3(CCN(C(=O)c4ccc(OC(C)C)c(C)c4)CC3)O2)n1` (stereo not shown) [Compound 148], the pIC50 was 5.30 to 5.70. In the case of `Cc1noc(C2CN(CC(F)(F)F)CC3(CCN(C(=O)c4ccc(OC(C)C)c(C)c4)CC3)O2)n1` (stereo not shown) [Compound 149], the pIC50 is 5.30 to 5.70. On to `Cc1cc(C(=O)N2CCC3(CC2)CN(CC(F)F)CC(c2[nH]ncc2C)O3)ccc1OC(C)C` (stereo not shown) [Compound 150], for which the pIC50 is over 5.70. In the case of `O=C(c1ccc(C2(O)COC2)cc1)N1CCC2(CC1)CN(CC(F)(F)F)CC(c1ccccc1)O2` (stereo not shown) [Compound 151], the pIC50 is under 5.30.

On to `COc1cc(C(=O)N2CCC3(CC2)CN(CC(F)(F)F)CC(c2ncc(C)s2)O3)ccc1OC(C)C` (stereo not shown) [Compound 152], for which the pIC50 is over 5.70. For the compound `Cc1cc(C(=O)N2CCC3(CC2)CN(CC(F)F)CC(c2ccccc2)O3)ccc1OC(C)C` (stereo not shown) [Compound 153], the pIC50 is over 5.70.

Turning to `CC#CCN1CC(F)(F)OC2(CCN(C(=O)c3ccc(OC(C)C)c(C)c3)CC2)C1` [Compound 154], the negative logarithm of the IC50 (pIC50) was under 5.30.
